The subject of test [1] is NOX4. In words: NOX4 protein expression in mouse primary endothelial cells under high glucose (Western blot). Type of test: cell-based. An excerpt: The detection method of Western Blot and mRNA used in the present embodiment is a detection method commonly used by person skilled in the art, and the specific detection method is described in “Molecular Biology Laboratory Manual” (People's Military Medical Press, published in 2011 Jun. 1). 3.2 Western blot and Realtime PCR confirmed that ATG could inhibit the overexpression of NOX4 in mouse's primary endothelial cells. The dose of 1 and 10 μmol/L corresponds to the last two bands.

The target of test [2] is T1, PP2AB (Homo sapiens, UniProt P62714).
T1 construct: endogenous in cells; host or cells: 293T
Briefly: DARTS-western blot of ATG binding to PP2A in 293T cells. Particulars: ATG 100, 300, 1000 μM, pronase 1:1000, FIG. 1. The protocol:
We used ATG to stimulate 293T cells. […] The applied ATG was formulated at 3 different concentrations: 100 μM, 300 μM, 1000 μM. So there are 5 groups of Western Blot: blank group (without addition of pronase), DMSO (pronase 1:1000), ATG 100 μM (pronase 1:1000), ATG 300 μM (pronase 1:1000), ATG 1000 μM (Pronase 1:1000). […] While pronase can digest proteins, it digests more ATG-unbinding proteins than ATG-binding proteins. […] This method is called DARTS.
In FIG. 1: DARTS-western blot confirmed the binding of ATG to PP2AB; PP2A had three structural units, and ATG bound to the catalytic unit. The catalyst unit of the protein called PP2AB, the gene called PPP2CB.
(In general: A western blot detects proteins with antibodies after separation by electrophoresis.)

In test [3] the test system is NOX. Briefly: NOX-related ROS induced by high glucose (NADPH oxidative activity, luminescence). Type of test: cell-based, human. On the procedure:
The human immortal podocytes were divided into 6 groups: blank group, high glucose group (30 mM), high glucose+10 μMATG, high glucose+20 μMATG, high glucose+50 μMATG, high glucose+100 μMATG.
The effects of ATG on NOX producing ROS were observed by measuring the oxidative activity of NADPH (reduced coenzyme II): The […] were washed twice with HBSS (Hanks balanced salt solution), during which the cell culture dish was placed on ice. The cells were scraped with frozen HBSS containing protease inhibitors, then homogenated. The protein concentration was measured and calculated. 30 μg protein was added to each well and 25 μM […] (Santa Cruz) and 200 μM NADPH (Cayman Chemical) were also added. After staying in the dark room for 10 minutes at 37° C., the luminescence of each well was measured. Results: There was significant difference of ROS between high glucose group and normal group (P<0.05). The different concentration of ATG (10 μM, 20 μM, 50 μM, 100 μM) could reduce the amount of ROS induced by NOX. See Table 7 and FIG. 10 for the details.

The record followed here is patent US9994533B2, “Method of preparing ATG's analogue, and the application of ATG and it's analogue” (Longhua Hospital Shanghai University of Traditional Chinese …, priority 2016, dated 2018).

T1 sequence (P62714 whole entry): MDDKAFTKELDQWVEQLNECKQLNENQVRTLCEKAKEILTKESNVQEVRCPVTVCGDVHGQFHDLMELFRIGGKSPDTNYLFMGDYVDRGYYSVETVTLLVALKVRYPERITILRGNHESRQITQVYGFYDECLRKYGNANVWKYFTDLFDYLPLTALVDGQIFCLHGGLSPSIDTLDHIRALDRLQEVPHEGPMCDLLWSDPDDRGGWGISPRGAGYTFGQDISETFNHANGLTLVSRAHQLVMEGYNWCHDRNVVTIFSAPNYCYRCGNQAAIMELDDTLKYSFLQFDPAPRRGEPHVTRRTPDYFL

As to `COc1cc(C[C@H]2C(=O)OC[C@@H]2Cc2ccc(OC)c(OC)c2)ccc1O` [ATG, Arctigenin], the figures for the “NOX4/B-Tubulin Mean” value in test [1] (ATG 1 uM) and in test [1] (ATG 10 uM) were 0.18 and 0.12, respectively. Besides, the “PP2A binding (DARTS-western blot)” value in test [2] is recorded as “PP2A binding increased with the increasing concentration of ATG”. For the same compound, the “NOX-related ROS (luminescence), mean” value was 1030 in test [3] (HG + 10 μM ATG), 864 in test [3] (HG + 20 μM ATG), 794 in test [3] (HG + 50 μM ATG) and 832 in test [3] (HG + 100 μM ATG).
